# Assay results taken from patent US20030186967A1, “Acylresorcinol derivatives are selective vitronectin receptor inhibitors” (American Home Products Corporation, priority 1998, published 2003).
# Molecular target: T1, Vitronectin receptor αVβ3 (Homo sapiens, UniProt P05106+P06756)
# T1 construct: expressed in transfected cells; host or cells: 512P5 cells (plasma membrane preparation)
# Test: Vitronectin Receptor αVβ3 Binding Assay
# Settings: read-out: VnR (IC50μM)
# T1 sequence (P06756 31-889 limits assumed): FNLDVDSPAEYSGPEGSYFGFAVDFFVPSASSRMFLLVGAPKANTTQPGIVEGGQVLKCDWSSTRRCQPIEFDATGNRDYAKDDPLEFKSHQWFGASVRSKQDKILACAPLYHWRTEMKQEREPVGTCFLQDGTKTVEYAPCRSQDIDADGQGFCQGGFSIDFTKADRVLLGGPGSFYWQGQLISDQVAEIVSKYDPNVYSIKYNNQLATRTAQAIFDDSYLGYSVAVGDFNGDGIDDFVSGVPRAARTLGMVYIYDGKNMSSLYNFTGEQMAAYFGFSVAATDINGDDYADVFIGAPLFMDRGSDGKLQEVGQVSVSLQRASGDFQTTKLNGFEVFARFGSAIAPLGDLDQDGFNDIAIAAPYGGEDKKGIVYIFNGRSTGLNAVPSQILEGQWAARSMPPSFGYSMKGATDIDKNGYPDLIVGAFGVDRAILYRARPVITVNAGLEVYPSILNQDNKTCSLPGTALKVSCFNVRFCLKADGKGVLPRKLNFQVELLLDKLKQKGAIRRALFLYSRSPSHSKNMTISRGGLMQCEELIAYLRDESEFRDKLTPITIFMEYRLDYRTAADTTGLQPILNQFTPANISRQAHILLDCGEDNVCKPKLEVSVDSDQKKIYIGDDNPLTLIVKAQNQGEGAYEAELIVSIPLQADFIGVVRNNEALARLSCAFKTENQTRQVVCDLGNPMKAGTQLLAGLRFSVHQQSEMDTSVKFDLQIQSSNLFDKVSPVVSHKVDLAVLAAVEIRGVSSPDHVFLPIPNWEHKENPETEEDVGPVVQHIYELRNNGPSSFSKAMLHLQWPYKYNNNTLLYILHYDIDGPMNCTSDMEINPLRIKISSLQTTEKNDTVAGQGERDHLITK
# T1 sequence (P06756 891-1048 partner limits assumed): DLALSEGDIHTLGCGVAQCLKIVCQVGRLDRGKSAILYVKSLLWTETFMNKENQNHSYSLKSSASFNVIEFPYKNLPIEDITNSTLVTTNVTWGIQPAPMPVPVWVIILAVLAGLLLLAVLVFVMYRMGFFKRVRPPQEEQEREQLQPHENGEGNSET
# T1 sequence (P05106 27-788): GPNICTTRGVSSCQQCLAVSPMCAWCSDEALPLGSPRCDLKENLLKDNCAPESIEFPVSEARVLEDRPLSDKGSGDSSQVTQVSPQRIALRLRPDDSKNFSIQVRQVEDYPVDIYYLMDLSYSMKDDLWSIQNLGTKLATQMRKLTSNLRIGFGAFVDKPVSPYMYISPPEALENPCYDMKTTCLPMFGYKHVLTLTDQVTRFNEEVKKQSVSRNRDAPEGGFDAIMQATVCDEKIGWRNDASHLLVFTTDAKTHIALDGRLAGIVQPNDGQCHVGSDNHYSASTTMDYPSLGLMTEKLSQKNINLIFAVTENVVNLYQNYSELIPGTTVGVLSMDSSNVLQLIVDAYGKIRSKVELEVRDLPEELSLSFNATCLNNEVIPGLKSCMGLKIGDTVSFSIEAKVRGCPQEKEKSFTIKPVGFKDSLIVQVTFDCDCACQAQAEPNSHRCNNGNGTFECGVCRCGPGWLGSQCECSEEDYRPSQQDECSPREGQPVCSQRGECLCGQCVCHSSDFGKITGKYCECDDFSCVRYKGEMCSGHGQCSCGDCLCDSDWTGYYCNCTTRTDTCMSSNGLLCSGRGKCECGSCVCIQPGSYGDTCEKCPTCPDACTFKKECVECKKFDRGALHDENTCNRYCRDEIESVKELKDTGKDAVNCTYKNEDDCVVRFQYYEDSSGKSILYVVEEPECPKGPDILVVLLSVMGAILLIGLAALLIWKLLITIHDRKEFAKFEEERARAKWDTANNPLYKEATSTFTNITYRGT
row,SMILES,IC50 [µM]
1,"CCCCCCCCOC(=O)N[C@@H](CNC(=O)c1ccc(OCCNC2=NCCN2)cc1O)C(=O)O [Example 105, (2S)-3-({4-[2-(4,5-dihydro-1H-imidazol-2-ylamino)ethoxy]-2-hydroxybenzoyl}-amino)-2-{[(octyloxy)carbonyl]amino}propanoic acid]",0.135
2,"CCCCOC(=O)N[C@@H](CNC(=O)c1ccc(OCCNC2=NCCN2)cc1O)C(=O)O [Example 106, (2S)-2-[(butoxycarbonyl)amino]-3-({4-[2-(4,5-dihydro-1H-imidazol-2-ylamino)ethoxy]-2-hydroxybenzoyl}amino)propanoic acid]",0.114
3,"CC(C)COC(=O)N[C@@H](CNC(=O)c1ccc(OCCNC2=NCCN2)cc1O)C(=O)O [Example 107, (2S)-3-({4-[2-(4,5-dihydro-1H-imidazol-2-ylamino)ethoxy]-2-hydroxybenzoyl}-amino)-2-[(isobutoxycarbonyl)amino]propanoic acid]",0.13
4,"CCCCNC(=O)N[C@@H](CNC(=O)c1ccc(OCCNC2=NCCN2)cc1O)C(=O)O [Example 108, (2S)-2-{[(butylamino)carbonyl]amino}-3-({4-[2-(4,5-dihydro-1H-imidazol-2-ylamino)ethoxy]-2-hydroxybenzoyl}amino)propanoic acid]",1.1
5,"CCCCCCNC(=O)N[C@@H](CNC(=O)c1ccc(OCCNC2=NCCN2)cc1O)C(=O)O [Example 109, (2S)-3-({4-[2-(4,5-dihydro-1H-imidazol-2-ylamino)ethoxy]-2-hydroxybenzoyl}-amino)-2-{[(hexylamino)carbonyl]amino}propanoic acid]",0.251
6,"CCCCCCCCNC(=O)N[C@@H](CNC(=O)c1ccc(OCCNC2=NCCN2)cc1O)C(=O)O [Example 110, (2S)-3-({4-[2-(4,5-dihydro-1H-imidazol-2-ylamino)ethoxy]-2-hydroxybenzoyl}-amino)-2-{[(octylamino)carbonyl]amino}propanoic acid]",0.544
7,"C=CCNC(=O)N[C@@H](CNC(=O)c1ccc(OCCNC2=NCCN2)cc1O)C(=O)O [Example 111, (2S)-2-{[(allylamino)carbonyl]amino}-3-({4-[2-(4,5-dihydro-1H-imidazol-2-ylamino)ethoxy]-2-hydroxybenzoyl}amino)propanoic acid]",0.856
8,"O=C(NC1CCCCC1)N[C@@H](CNC(=O)c1ccc(OCCNC2=NCCN2)cc1O)C(=O)O [Example 112, (2S)-2-{[(cyclohexylamino)carbonyl]amino}-3-({4-[2-(4,5-dihydro-1H-imidazol-2-ylamino)ethoxy]-2-hydroxybenzoyl}amino)propanoic acid]",1.09
9,"O=C(NCc1ccccc1)N[C@@H](CNC(=O)c1ccc(OCCNC2=NCCN2)cc1O)C(=O)O [Example 113, (2S)-2-{[(benzylamino)carbonyl]amino}-3-({^4-[2-(4,5-dihydro-1H-imidazol-2-ylamino)ethoxy]-2-hydroxybenzoyl}amino)propanoic acid]",3.03
10,"COc1ccccc1NC(=O)N[C@@H](CNC(=O)c1ccc(OCCNC2=NCCN2)cc1O)C(=O)O [Example 115, (2S)-3-({4-[2-(4,5-dihydro-1H-imidazol-2-ylamino)ethoxy]-2-hydroxybenzoyl}-amino)-2-{[(2-methoxyanilino)carbonyl]amino}propanoic acid]",0.258
11,"O=C(Nc1ccccc1-c1ccccc1)N[C@@H](CNC(=O)c1ccc(OCCNC2=NCCN2)cc1O)C(=O)O [Example 116, (2S)-2-{[([1,1′-biphenyl]-2-ylamino)carbonyl]amino}-3-({4-[2-(4,5-dihydro-1H-imidazol-2-ylamino)ethoxy]-2-hydroxybenzoyl}amino)propanoic acid]",2.76
12,"O=C(NCCc1ccccc1)N[C@@H](CNC(=O)c1ccc(OCCNC2=NCCN2)cc1O)C(=O)O [Example 117, (2S)-3-({4-[2-(4,5-dihydro-1H-imidazol-2-ylamino)ethoxy]-2-hydroxybenzoyl}-amino)-2-({[(2-phenylethyl)amino]carbonyl}amino)propanoic acid]",1.52
